Assay results as given in paper PMC9356275, “A quantitative high-throughput screen identifies compounds that lower expression of the SCA2-and ALS-associated gene ATXN2” (The Journal of Biological Chemistry, 2022).
Like-named read-outs stand apart in the source and are kept apart here.

Key:
ATXN2-luc [1] = assay: Secondary assays: ATXN2-luc in S2 and H2 cells, 12 doses, Bright-Glo; type: cell-based, human; conditions: summary data; for IC50: ATXN2-luc luciferase assays in H2 and S2 cells, 12 doses plus a zero dose, read-out: Mean IC50; for min ATXN2-luc (%): minimum ATXN2-luc signal over 12 doses, H2 and S2 cells
Procedure: (§1) The values for H2 and S2 were used as replicates to calculate IC50s and to assess cell viability.
(§2) Compounds were plated at 2× concentrations in phenol red–free DMEM in 25 μl in 384-well plates with each compound dose plated in triplicate. An equal volume of S2, H2, or SC cells (24,000 cells/well) suspended in phenol red–free DMEM with 10% fetal bovine serum and 1× penicillin/streptomycin were added. Cells were grown 24 h and then assayed first by using the CellTiter-Fluor reagent (20 μl) followed by the addition of Bright-Glo (65 μl) luciferase assay, using a multimode plate reader (Beckman; DT880). Values were reported as the mean ± SD with n = 3. IC50s were determined by the Hill coefficient method using an online tool (https://www.aatbio.com/tools/ic50-calculator).

CMV-luc = assay: Secondary assays: CMV-luc in SC cells, Bright-Glo; type: cell-based, human; conditions: minimum CMV-luc signal in SC cells over 12 doses; summary data
Procedure: as §2

S2, H2 or SC cells = assay: Secondary assays: multiplexed cell viability (CellTiter-Fluor)
Procedure: as §1, §2

ATXN2-luc [2] = assay: MSSR hit retest / multiconcentration testing: ATXN2-luc luciferase assay in H2 cells (1 and 10 μM); type: cell-based, human; conditions: for H2&S1 ave luc 1uM: 1 uM compound; for H2&S1 ave luc 10uM: 10 uM compound
ATXN2-luc [3] = assay: MSSR hit retest: ATXN2-luc luciferase assay, average of H2 and S1 cells (1 and 10 uM); type: cell-based, human; parameters: H2&S1 ave luc 1uM / H2&S1 ave luc 10uM: scale not given here; conditions: for H2&S1 ave luc 10uM: head line r4 20 uM compound; for activity at 1 µM: read-out: H2&S1 ave luc 1uM
Source text: (§3) Supplement mmc2.xlsx, sheet "43 annotated compounds"

H2 and S1 cells = assay: Paired MTT viability assay, average of H2 and S1 cells (1 and 10 uM); type: cell-based, human; parameters: H2&S1 ave MTT 1uM / H2&S1 ave MTT 10uM: unit not given here; conditions: for viability at 1 µM / viability at 10 µM: Homo sapiens
Source text: as §3

ATXN2-luc [4] = assay: MSSR pilot screen: ATXN2-luc luciferase assay (Bright-Glo) in H2 cells, single 10 μM dose; type: cell-based, human; conditions: for SD from mean (ATXN2-luc, Z-score): H2 cells, single dose (title: 10 μM compound), overnight; for ¦Score/1SD¦: absolute score divided by 1SD (0.891 or 0.9)
[5] = minimum viability, multiplexed CellTiter-Fluor, over 12 doses, summary data
[6] = luciferase, average of H2 and S1 cells expressing ATXN2-luc, rescreen
[7] = 1 uM compound, average of H2 and S1 cells
[8] = head line r3 10uM, average of H2 and S1 cells
[9] = pilot screen at 10 µM compound, H2 cells expressing ATXN2-luc
[10] = luciferase assay, average of H2 and S1 cells (both ATXN2-luc), rescreen from plated libraries
[11] = pilot screen, H2 cells expressing ATXN2-luc, single dose printed as 10 μM compound

Row | Compound | IC50 (ATXN2-luc [1]) [nM] | min ATXN2-luc (%) (ATXN2-luc [1]) | min SC luc (%) (CMV-luc) | min viability (%) (S2, H2 or SC cells; [5]) | SD from mean (ATXN2-luc, Z-score) (ATXN2-luc [4]) [SD] | SD from mean (pilot screen) (ATXN2-luc [4]; pilot screen) [SD] | ¦Score/1SD¦ (ATXN2-luc [4]; pilot screen) | further results
1 | CN[C@@H]1CN(c2ccc3c(=O)c(C(=O)O)cn(-c4nccs4)c3n2)C[C@@H]1OC [NCGC00346437-01] | 488 | 15.1045 | 64.0102 | 71.6056 | – | – | – | –
2 | C=CCNc1c(O)cc2c(O)c1C[C@@H](C)C[C@H](OC)[C@@H](O)[C@@H](C)C=C(C)[C@H](OC(N)=O)[C@@H](OC)C=CC=C(C)C(=O)N2 [NCGC00346438-01] | 546 | 24.2069 | 94.9947 | – | – | – | – | min viability (%) (S2, H2 or SC cells): 91.4914%
3 | C[C@@H](Oc1ccc2[nH]nc(C=Cc3cnn(CCO)c3)c2c1)c1c(Cl)cncc1Cl [NCGC00346459-01] | 1390 | 15.2562 | 64.272 | 66.1226 | – | – | – | –
4 | Nc1ncnc2c1c(-c1cnc3[nH]ccc3c1)nn2C1CCCC1 [NCGC00346619-01, PP121] | 4160 | 27.4759 | 78.0969 | 50.3878 | – | – | – | –
5 | O=c1[nH]c2ccc(Cl)cc2c(N[C@@H]2CN3CCC2CC3)c1-c1nc2ccccc2[nH]1 [NCGC00346626-01, CHIR-124] | 219 | 17.9767 | 69.3978 | 75.0552 | – | – | – | –
6 | CC1(C)CC(=O)c2c(C(F)(F)F)nn(-c3ccc(C(N)=O)c(NC4CCC(OC(=O)CN)CC4)c3)c2C1 (stereo not drawn) [NCGC00346640-01, PF 04929113] | 88 | 19.9722 | 69.7843 | – | – | – | – | min viability (%) (S2, H2 or SC cells): 87.146%
7 | Cn1cc(-c2cnn3c(N)c(Br)c([C@H]4CCCNC4)nc23)cn1 [NCGC00346653-01] | 388 | 25.4941 | 91.5137 | 87.0431 | – | – | – | –
8 | CC(C)c1cc(-c2n[nH]c(=O)n2-c2ccc3c(ccn3C)c2)c(O)cc1O [NCGC00346678-01] | 30 | 17.7351 | 55.4123 | 77.8152 | – | – | – | –
9 | CCN(CC)CCCCCCCCOC(=O)c1cc(OC)c(OC)c(OC)c1 [TMB-8] | – | – | – | – | -5.740 | -5.740 | 6.44 | H2&S1 ave luc 1uM (ATXN2-luc [2]; [6]): 66; H2&S1 ave luc 10uM (ATXN2-luc [2]; [6]): 53; H2&S1 ave luc 1uM (ATXN2-luc [3]; [7]): 66; H2&S1 ave luc 10uM (ATXN2-luc [3]; [8]): 53; H2&S1 ave MTT 1uM (H2 and S1 cells; 1 uM compound): 73.9218; H2&S1 ave MTT 10uM (H2 and S1 cells; 10 uM compound): 52.1193; SD from mean (pilot screen) (ATXN2-luc [4]; [9]): -5.740
10 | COc1cccc(C2(O)CCCCC2CN(C)C)c1 (stereo not drawn) [Tramadol] | – | – | – | – | -3.415 | -3.415 | 3.79 | H2&S1 ave luc 1uM (ATXN2-luc [2]; [10]): 107; H2&S1 ave luc 10uM (ATXN2-luc [2]; [10]): 134; activity at 1 µM (ATXN2-luc [3]; Homo sapiens): 107%; activity (ATXN2-luc [3]; Homo sapiens, read-out: H2&S1 ave luc 10uM): 134%; viability at 1 µM (H2 and S1 cells; read-out: H2&S1 ave MTT 1uM, 1 uM compound): 128%; viability at 10 µM (H2 and S1 cells; read-out: H2&S1 ave MTT 10uM, 10 uM compound): 113%; SD from mean (pilot screen) (ATXN2-luc [4]; [11]): -3.415
11 | O=c1[nH]c(=O)n([C@H]2C[C@H](O)[C@@H](CO)O2)cc1C(F)(F)F [Trifluridine] | – | – | – | – | -5.158 | -5.158 | 5.79 | H2&S1 ave luc 1uM (ATXN2-luc [2]; [6]): 102; activity at 1 µM (ATXN2-luc [3]; Homo sapiens, 1 uM compound, average of H2 and S1 cells): 102%; activity at 10 µM (ATXN2-luc [3]; Homo sapiens, head line r3 10uM, average of H2 and S1 cells, read-out: H2&S1 ave luc 10uM): 71%; viability at 1 µM (H2 and S1 cells; 1 uM compound, read-out: H2&S1 ave MTT 1uM): 80.3%; viability at 10 µM (H2 and S1 cells; 10 uM compound, read-out: H2&S1 ave MTT 10uM): 53%; SD from mean (pilot screen) (ATXN2-luc [4]; [9]): -5.158
12 | C1CCC(N=C(NC23CC4CC(CC(C4)C2)C3)N2CCOCC2)CC1.Cl [U-37883A] | – | – | – | – | -4.965 | -4.965 | 5.57 | H2&S1 ave luc 1uM (ATXN2-luc [2]; [6]): 94; H2&S1 ave luc 10uM (ATXN2-luc [2]; [6]): 17; H2&S1 ave luc 1uM (ATXN2-luc [3]; [7]): 94; H2&S1 ave luc 10uM (ATXN2-luc [3]; [8]): 17; H2&S1 ave MTT 1uM (H2 and S1 cells; 1 uM compound): 105.463; H2&S1 ave MTT 10uM (H2 and S1 cells; 10 uM compound): 56.7572; SD from mean (pilot screen) (ATXN2-luc [4]; [9]): -4.965
13 | Cyanocobalamin | – | – | – | – | -2.681 | -2.681 | 3.01 | H2&S1 ave luc 1uM (ATXN2-luc [2]; [10]): 110; H2&S1 ave luc 10uM (ATXN2-luc [2]; [10]): 140; H2&S1 ave luc 1uM (ATXN2-luc [3]; [7]): 110; H2&S1 ave luc 10uM (ATXN2-luc [3]; [8]): 140; H2&S1 ave MTT 1uM (H2 and S1 cells; 1 uM compound): 151.543; H2&S1 ave MTT 10uM (H2 and S1 cells; 10 uM compound): 134.855; SD from mean (pilot screen) (ATXN2-luc [4]; [11]): -2.681
14 | STROPH[…] LACTONE ACETATE | – | – | – | – | -3.855 | -3.855 | 4.28 | H2&S1 ave luc 1uM (ATXN2-luc [2]; [6]): 37; H2&S1 ave luc 10uM (ATXN2-luc [2]; [6]): 20; H2&S1 ave luc 1uM (ATXN2-luc [3]; [7]): 37; H2&S1 ave MTT 1uM (H2 and S1 cells; 1 uM compound): 43.5914; H2&S1 ave MTT 10uM (H2 and S1 cells; 10 uM compound): 36.6277; SD from mean (pilot screen) (ATXN2-luc [4]; [9]): -3.855
